Data on one compound can be found in paper PMC10654507, “A cleavable chimeric peptide with targeting and killing domains enhances LPS neutralization and antibacterial properties against multi-drug resistant E. coli” (Communications Biology, 2023).

The test system of series [1] is E. coli, S. typhimurium and S. aureus. In kind it is cell-based. The conditions noted are these: tested S. aureus strains. The procedure:
The minimum inhibitory concentration (MIC) and minimum bactericidal concentration (MBC) of peptides were determined by the microtiter broth dilution method according to Clinical and Laboratory Standards Institute (CLSI) guidelines. […] PBS was used as the negative control. […] The MBC value was calculated as the lowest concentration of peptides resulting in a 99.9% reduction of the original inoculum. All experiments were repeated three times.

A further series relates to T1, furin.
T1 construct: purchased NEB (New England Biolabs) P8077
The experiment in a line: Cleavage of R7 by furin in vitro (RP-HPLC). In kind it is in vitro ADME. The conditions noted are these: human, recombinant human furin enzyme, furin 8 U/reaction, 25 °C, RP-HPLC peak area, read-out: Cleavage efficiency. The procedure: Chimeric peptide R7 was treated with recombinant human furin enzyme (8 U/reaction; NEB P8077) in 50-μL reactions supplemented with in 20 mM HEPES, 0.1% Triton X-100, 1 mM CaCl2, 0.2 mM β-mercaptoethanol. The reaction mixtures were incubated at 25 °C for 65 h. An aliquot of 50 μL sample was taken at different time points, and analyzed by RP-HPLC or MALDI-TOF MS. […] The cleavage rate of R7 was calculated from the peak area as follows: Cleavage rate (%) = [(Area0 –Areat)/Area0] × 100, where 0 and t present digestion time[58].

The next series deals with MDR E. coli CVCC195. In words: Antibacterial activity after incubation in mouse serum (inhibition zone). In kind it is cell-based, Escherichia coli. The conditions noted are these: until 8 h of incubation. The procedure: Serum stability of R7 and its parent-L7 was tested as previously described with minor modifications[46],[53]. Briefly, each peptide was added to the 25% mouse serum to a final concentration of 0.5 mM; 250 µL aliquots of samples were taken at 0, 0.5, 1, 2, 4 and 8 h, and mixed with 20 µL 15% trichloroacetic acid (TCA). The samples were incubated at 4 °C for 15 min and centrifuged for 10 min at 12,000 rpm. The supernatants were analyzed by RP-HPLC or inhibition zone method. Moreover, after incubation in serum for 2 h, R7 was analyzed by matrix assisted laser desorption/ionization-time of flight mass spectrometry (MALDI-TOF MS) and high-performance liquid chromatography-mass spectrometry (HPLC-MS), respectively.

The structures appear in SMILES notation. Residues, ends and D or L forms follow the SMILES beside them.

As to `CSCC[C@H](NC(=O)[C@H](CCCNC(=N)N)NC(=O)[C@H](Cc1c[nH]c2ccccc12)NC(=O)[C@H](C)NC(=O)[C@H](Cc1c[nH]c2ccccc12)NC(=O)[C@H](CCCNC(=N)N)NC(=O)[C@H](Cc1c[nH]c2ccccc12)NC(=O)[C@H](C)NC(=O)[C@H](CCCCN)NC(=O)[C@H](Cc1ccccc1)NC(=O)[C@H](CCCNC(=N)N)NC(=O)[C@H](CCCNC(=N)N)NC(=O)[C@H](CCCCN)NC(=O)[C@H](CCCNC(=N)N)NC(=O)[C@H](CCCCN)NC(=O)[C@H](Cc1ccccc1)NC(=O)[C@H](Cc1ccccc1)NC(=O)[C@H](CO)NC(=O)[C@H](C)NC(=O)[C@H](CCCNC(=N)N)NC(=O)[C@@H](NC(=O)[C@H](CCCCN)NC(=O)[C@H](Cc1c[nH]c2ccccc12)NC(=O)[C@H](CCCNC(=N)N)NC(=O)CNC(=O)[C@H](CCC(N)=O)NC(=O)[C@@H](NC(=O)[C@@H](N)CCCNC(=N)N)C(C)C)C(C)C)C(=O)N[C@@H](CCCCN)C(=O)N[C@@H](CCCCN)C(=O)N[C@@H](CC(C)C)C(=O)N[C@@H](C)C(=O)N[C@@H](C)C(=O)N1CCC[C@H]1C(=O)N[C@@H](CO)C(=O)O` [R7] (H-RVQGRWKVRASFFKRKRRFKAWRWAWRMKKLAAPS-OH), the “increase of activity compared to parent peptides (LBP14-RKRR and L7)” value in series [1] is recorded as not below 2 fold. For the same compound, in the series with furin (digestion 4 h), the metabolised at 4 h is 14.5%. In addition, the metabolised at 8 h in the series on furin (digestion 8 h) turned out to be 17.8%. Further, the metabolised at 18 h in the series with furin (digestion 18 h) turned out to be 29.5%. Also, in the series on furin (digestion 24 h), the metabolised at 24 h was found to be 36.2%. The metabolised at 30 h with furin (digestion 30 h) stood at 42.5%. The metabolised at 44 h in the series with furin (digestion 44 h) turned out to be 52.7%. Besides, the metabolised at 53 h with furin (digestion 53 h) is 57.4%. For the same compound, the metabolised at 65 h in the series on furin (digestion 65 h) was 61.8%. Further, the “change of antibacterial activity in mouse serum” value in the series on MDR E. coli CVCC195 is listed as “did not changed”.
